Patent US7528138B2, “Pyrazolo[1,5-a]pyrimidines useful as inhibitors of protein kinases” (Vertex Pharmaceuticals Incorporated, priority 2004, dated 2009)

Legend:
Aurora-2 = molecular target: T1, Aurora-2 (Homo sapiens, UniProt O14965); experiment: Aurora-A (Aurora-2) Inhibition Assay, coupled enzyme assay; assay type: biochemical; conditions: enzyme inhibition data (Ki), Table 11; read-out: AurA Ki
T1 sequence (O14965 1-403): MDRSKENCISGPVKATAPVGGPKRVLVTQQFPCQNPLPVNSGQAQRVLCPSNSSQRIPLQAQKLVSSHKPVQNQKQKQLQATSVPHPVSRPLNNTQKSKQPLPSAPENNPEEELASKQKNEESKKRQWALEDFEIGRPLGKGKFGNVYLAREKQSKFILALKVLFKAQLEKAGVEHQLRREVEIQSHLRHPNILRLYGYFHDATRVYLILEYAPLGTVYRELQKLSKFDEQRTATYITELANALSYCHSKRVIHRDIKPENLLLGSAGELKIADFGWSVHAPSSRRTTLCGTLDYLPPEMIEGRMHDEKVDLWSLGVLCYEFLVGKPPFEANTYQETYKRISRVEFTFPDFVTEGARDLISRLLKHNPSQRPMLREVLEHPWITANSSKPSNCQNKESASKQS
Method: Compounds are screened for their ability to inhibit Aurora-2 using a standard coupled enzyme assay (Fox et al., Protein Sci., (1998) 7, 2249). Assays are carried out in a mixture of 100 mM Hepes (pH7.5), 10 mM MgCl2, 1 mM DTT, 25 mM NaCl, 2.5 mM phosphoenolpyruvate, 300 μM NADH, 30 μg/ml pyruvate kinase and 10 μg/ml lactate dehydrogenase. Final substrate concentrations in the assay are 400 μM ATP (Sigma Chemicals) and 570 μM peptide (Kemptide, American Peptide, Sunnyvale, Calif.). Assays are carried out at 30° C. and in the presence of 40 nM Aurora-2.
An assay stock buffer solution is prepared containing all of the reagents listed above, with the exception of Aurora-2 and the test compound of interest. 55 μl of the stock solution is placed in a 96 well plate followed by addition of 2 μl of DMSO stock containing serial dilutions of the test compound (typically starting from a final concentration of 7.5 μM). The plate is preincubated for 10 minutes at 30° C. and the reaction initiated by addition of 10 μl of Aurora-2. Initial reaction rates are determined with a Molecular Devices SpectraMax Plus plate reader over a 10 minute time course. IC50 and Ki data are calculated from non-linear regression analysis using the Prism software package (GraphPad Prism version 3.0cx for Macintosh, GraphPad Software, San Diego Calif., USA).

Itk = molecular target: T2, Itk (Homo sapiens, UniProt Q08881); experiment: ITK Inhibition Assay (Radiometric), radioactive-phosphate incorporation; assay type: biochemical; conditions: enzyme inhibition data (Ki), Table 11; radiometric or UV assay not stated
T2 sequence (Q08881 1-620): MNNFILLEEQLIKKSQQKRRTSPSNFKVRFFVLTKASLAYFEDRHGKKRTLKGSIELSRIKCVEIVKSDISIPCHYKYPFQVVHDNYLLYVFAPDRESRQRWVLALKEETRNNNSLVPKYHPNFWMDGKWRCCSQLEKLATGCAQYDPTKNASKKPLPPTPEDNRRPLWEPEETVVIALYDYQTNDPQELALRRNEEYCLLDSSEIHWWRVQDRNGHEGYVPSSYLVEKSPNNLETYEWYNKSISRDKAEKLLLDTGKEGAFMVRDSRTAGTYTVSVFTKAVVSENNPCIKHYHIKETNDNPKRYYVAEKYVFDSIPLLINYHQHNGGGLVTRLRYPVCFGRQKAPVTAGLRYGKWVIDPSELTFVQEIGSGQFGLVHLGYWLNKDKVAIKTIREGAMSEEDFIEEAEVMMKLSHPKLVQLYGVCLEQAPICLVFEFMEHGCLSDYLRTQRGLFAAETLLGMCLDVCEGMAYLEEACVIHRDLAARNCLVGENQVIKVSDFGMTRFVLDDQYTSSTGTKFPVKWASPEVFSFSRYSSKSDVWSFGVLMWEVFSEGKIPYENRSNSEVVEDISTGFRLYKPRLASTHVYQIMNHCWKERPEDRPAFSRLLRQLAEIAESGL
In short: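 Radiometric 33P incorporation into SAM68 peptide (D332-443) with filter capture and scintillation counting; 10 min pre-incubation then 10 min reaction at 25° C. IC50 format: 30 nM Itk, 15 μM ATP, 2 μM peptide, HEPES pH 7.5. Ki(app) format: 50 nM Itk, 7.5 μM ATP, 3 μM peptide, MOPS pH 7.0.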

Row | Compound | Ki (Aurora-2) | Ki (Itk)
1 | COc1ccccc1-c1cnc2c(-c3ccccn3)c(N)nn2c1 [Compound V-14] | 500 to 5000 nM | 500 to 5000 nM
2 | CC(C)CN(C)C(=O)c1ccc(-c2cnc3c(-c4ccccn4)c(N)nn3c2)nc1 [Compound V-97] | < 500 nM | < 500 nM
3 | CCN(CC)C(=O)c1ccc(-c2cnc3c(-c4ccccn4)c(N)nn3c2)nc1 [Compound V-98] | < 500 nM | < 500 nM
4 | CN1CCC(N(C)C(=O)c2cccc(-c3cnc4c(-c5ccccn5)c(N)nn4c3)n2)CC1 [Compound V-101] | 500 to 5000 nM | 500 to 5000 nM
5 | CCN1CCN(C(=O)c2cccc(-c3cnc4c(-c5ccccn5)c(N)nn4c3)n2)CC1 [Compound V-102] | 500 to 5000 nM | 500 to 5000 nM
6 | C#CCN(C)C(=O)c1cccc(-c2cnc3c(-c4ccccn4)c(N)nn3c2)n1 [Compound V-106] | 500 to 5000 nM | 500 to 5000 nM
7 | CCN(CCC#N)C(=O)c1cccc(-c2cnc3c(-c4ccccn4)c(N)nn3c2)n1 [Compound V-116] | 500 to 5000 nM | 500 to 5000 nM
8 | COCCCN1CCN(C(=O)c2ccc(-c3cnc4c(-c5ccccn5)c(N)nn4c3)nc2)CC1 [Compound V-129] | < 500 nM | < 500 nM
9 | CN(CCCN)C(=O)c1ccc(-c2cnc3c(-c4ccccn4)c(N)nn3c2)nc1 [Compound V-130] | 500 to 5000 nM | < 500 nM
10 | Cc1ccnc(-c2c(N)nn3cc(-c4ccncc4)cnc23)c1 [Compound V-133] | < 500 nM | 500 to 5000 nM
11 | Nc1nn2cc(-c3ccncc3)cnc2c1-c1ncccc1OCc1ccccc1 [Compound V-134] | 500 to 5000 nM | 500 to 5000 nM
12 | Cc1cccnc1-c1c(N)nn2cc(-c3ccncc3)cnc12 [Compound V-135] | 500 to 5000 nM | 500 to 5000 nM
13 | CC(C)N1CCN(c2ccc(-c3cnc4c(-c5ccccn5)c(N)nn4c3)cn2)CC1 [Compound V-146] | 500 to 5000 nM | < 500 nM
14 | Nc1nn2cc(-c3ccc(N4CCNCC4)nc3)cnc2c1-c1ccccn1 [Compound V-151] | 500 to 5000 nM | < 500 nM
15 | Nc1nn2cc(-c3ccc(N4CCC[C@H]4CN4CCCC4)nc3)cnc2c1-c1ccccn1 [Compound V-152] | 500 to 5000 nM | < 500 nM
16 | Nc1nn2cc(-c3cccc(C(=O)N4CCC[C@H]4CN4CCCC4)n3)cnc2c1-c1ccccn1 [Compound V-154] | 500 to 5000 nM | 500 to 5000 nM

Row | Compound | Ki (Aurora-2) | Ki (Itk)
17 | CN(CCCN)C(=O)c1cccc(-c2cnc3c(-c4ccccn4)c(N)nn3c2)n1 [Compound V-155] | 500 to 5000 nM | < 500 nM
18 | COCCNc1ccc(-c2cnc3c(-c4ccccn4)c(N)nn3c2)cn1 [Compound V-156] | 500 to 5000 nM | 500 to 5000 nM
19 | CN(C)CCNc1ccc(-c2cnc3c(-c4ccccn4)c(N)nn3c2)cn1 [Compound V-159] | 500 to 5000 nM | < 500 nM
20 | CN1CCCN(c2ccc(-c3cnc4c(-c5ccccn5)c(N)nn4c3)cn2)CC1 [Compound V-160] | 500 to 5000 nM | 500 to 5000 nM
21 | Nc1nn2cc(-c3ccc(N4CCC(N)CC4)nc3)cnc2c1-c1ccccn1 [Compound V-165] | < 500 nM | < 500 nM
22 | CCN(CC)CCN(C)c1ccc(-c2cnc3c(-c4ccccn4)c(N)nn3c2)cn1 [Compound V-173] | 500 to 5000 nM | < 500 nM
23 | Nc1nn2cc(-c3cccc(C(=O)N4CCC[C@@H]4CN4CCCC4)n3)cnc2c1-c1ccccn1 [Compound V-175] | 500 to 5000 nM | 500 to 5000 nM
24 | Nc1nn2cc(-c3ccc(N4CCC[C@@H]4CN4CCCC4)nc3)cnc2c1-c1ccccn1 [Compound V-176] | 500 to 5000 nM | < 500 nM
25 | Cc1cccc(-c2c(N)nn3cc(-c4ccncc4)cnc23)n1 [Compound V-178] | < 500 nM | < 500 nM
26 | CCN(CC)c1cc(-c2c(N)nn3cc(-c4ccncc4)cnc23)ncn1 [Compound V-180] | < 500 nM | < 500 nM
27 | CNc1cc(-c2c(N)nn3cc(-c4ccncc4)cnc23)ncn1 [Compound V-181] | < 500 nM | < 500 nM
28 | CC(C)Nc1cc(-c2c(N)nn3cc(-c4ccncc4)cnc23)ncn1 [Compound V-182] | < 500 nM | < 500 nM
29 | Nc1nn2cc(-c3ccncc3)cnc2c1-c1cc(NC2CCCCC2)ncn1 [Compound V-183] | < 500 nM | < 500 nM
30 | CC(C)CNc1cc(-c2c(N)nn3cc(-c4ccncc4)cnc23)ncn1 [Compound V-185] | < 500 nM | < 500 nM
31 | CNCCCN(C)C(=O)c1ccc(-c2cnc3c(-c4ccccn4)c(N)nn3c2)cc1 [Compound V-191] | < 500 nM | < 500 nM
32 | NCc1ccc(-c2cnc3c(-c4ccccn4)c(N)nn3c2)cc1 [Compound V-195] | < 500 nM | < 500 nM

Continued, values first:

Row | Ki (Aurora-2) | Ki (Itk) | Compound
33 | < 500 nM | < 500 nM | CS(=O)(=O)Nc1cccc(-c2cnc3c(-c4ccccn4)c(N)nn3c2)c1 [Compound V-18]
34 | 500 to 5000 nM | 500 to 5000 nM | Nc1nn2cc(-c3ccc(C(=O)NC4CCCO4)cn3)cnc2c1-c1ccccn1 (stereo not shown) [Compound V-96]
35 | 500 to 5000 nM | 500 to 5000 nM | Nc1nn2cc(-c3cccc(C(=O)N4CCC(N)CC4)n3)cnc2c1-c1ccccn1 [Compound V-104]
36 | 500 to 5000 nM | 500 to 5000 nM | Nc1nn2cc(-c3cccc(C(=O)N4CCCC4CO)n3)cnc2c1-c1ccccn1 (stereo not shown) [Compound V-112]
37 | 500 to 5000 nM | 500 to 5000 nM | CN(CCC#N)C(=O)c1cccc(-c2cnc3c(-c4ccccn4)c(N)nn3c2)n1 [Compound V-114]
38 | 500 to 5000 nM | 500 to 5000 nM | CCN(C)C(=O)c1cccc(-c2cnc3c(-c4ccccn4)c(N)nn3c2)n1 [Compound V-115]
39 | 500 to 5000 nM | 500 to 5000 nM | CCN(CC)CCN(C)C(=O)c1cccc(-c2cnc3c(-c4ccccn4)c(N)nn3c2)n1 [Compound V-124]
40 | 500 to 5000 nM | 500 to 5000 nM | CCN(CC)C(=O)c1cccc(-c2cnc3c(-c4ccccn4)c(N)nn3c2)n1 [Compound V-127]
41 | 500 to 5000 nM | 500 to 5000 nM | Cc1ccc(-c2c(N)nn3cc(-c4ccncc4)cnc23)nc1 [Compound V-132]
42 | 500 to 5000 nM | 500 to 5000 nM | COC(=O)C1CCCN1C(=O)c1cccc(-c2cnc3c(-c4ccccn4)c(N)nn3c2)n1 (stereo not shown) [Compound V-139]
43 | 500 to 5000 nM | < 500 nM | CCN1CCN(c2ccc(-c3cnc4c(-c5ccccn5)c(N)nn4c3)cn2)CC1 [Compound V-166]
44 | < 500 nM | < 500 nM | Nc1nn2cc(-c3ccc(C(=O)N4CCC[C@H]4CN4CCCC4)cn3)cnc2c1-c1ccccn1 [Compound V-177]
45 | < 500 nM | < 500 nM | Nc1nn2cc(-c3ccncc3)cnc2c1-c1cc(N2CCCCC2)ncn1 [Compound V-179]
46 | < 500 nM | < 500 nM | Nc1nn2cc(-c3ccncc3)cnc2c1-c1cc(NCC2CCCCC2)ncn1 [Compound V-184]
47 | < 500 nM | < 500 nM | CN(C)CCN(C)C(=O)c1ccc(-c2cnc3c(-c4ccccn4)c(N)nn3c2)cc1 [Compound V-188]
48 | 500 to 5000 nM | < 500 nM | CNCCN(C)C(=O)c1cccc(-c2cnc3c(-c4ccccn4)c(N)nn3c2)c1 [Compound V-189]
49 | 500 to 5000 nM | < 500 nM | CNCCCN(C)C(=O)c1cccc(-c2cnc3c(-c4ccccn4)c(N)nn3c2)c1 [Compound V-190]
50 | < 500 nM | < 500 nM | Nc1nn2cc(-c3ccc(CO)cc3)cnc2c1-c1ccccn1 [Compound V-194]
